Reference: the supplement of paper PMC10307832

How the values were obtained:
Test in all cases: relative viability (nuclei count vs DMSO), 5 days (fraction); higher = more cells survive
AZ628 + Linsitinib = compound: CC1=C(C=C(C=C1)NC(=O)C2=CC(=CC=C2)C(C)(C)C#N)NC3=CC4=C(C=C3)N=CN(C4=O)C [AZ628] + C[C@]1(O)C[C@@H](c2nc(-c3ccc4ccc(-c5ccccc5)nc4c3)c3c(N)nccn32)C1 [Linsitinib] (partner 1 µM)
Procedure, shortened: (§1)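 After 5 days of treatment, lung cancer cells in 1536-well plates were fixed and stained in a single step (final 0.05% Triton X-100, 1% formaldehyde, 1 ug/ml Hoechst) and their nuclei counted on 4× images. Treatment had been applied by pin tool the day after seeding as one drug alone or as a fixed anchor-drug dose with five library-drug doses (not always all listed) in √10 steps. Relative viability is the nuclei count of treated wells divided by that of vehicle wells, and values are medians of duplicate plates.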

QS11 + Tozasertib = compound: C1CC2=C(C1)C=C(C=C2)OC3=NC(=C4C(=N3)N(C=N4)CC5=CC=C(C=C5)C6=CC=CC=C6)N[C@@H](CC7=CC=CC=C7)CO [QS11] + Cc1cc(Nc2cc(N3CCN(C)CC3)nc(Sc3ccc(NC(=O)C4CC4)cc3)n2)n[nH]1 [Tozasertib] (partner 0.1 µM)
Procedure, shortened: as §1

AZ628 + Phenformin = compound: CC1=C(C=C(C=C1)NC(=O)C2=CC(=CC=C2)C(C)(C)C#N)NC3=CC4=C(C=C3)N=CN(C4=O)C [AZ628] + N=C(N)NC(=N)NCCc1ccccc1 [Phenformin] (partner 250 µM)
Procedure, shortened: as §1

QS11 + Olaparib = compound: C1CC2=C(C1)C=C(C=C2)OC3=NC(=C4C(=N3)N(C=N4)CC5=CC=C(C=C5)C6=CC=CC=C6)N[C@@H](CC7=CC=CC=C7)CO [QS11] + O=C(c1cc(Cc2n[nH]c(=O)c3ccccc23)ccc1F)N1CCN(C(=O)C2CC2)CC1 [Olaparib] (partner 8 µM)
Procedure, shortened: as §1

Cell Line | relative viability (AZ628 + Linsitinib; first compound 0.08 µM) | relative viability (AZ628 + Linsitinib; first compound 0.253 µM) | relative viability (AZ628 + Linsitinib; first compound 0.8 µM) | relative viability (AZ628 + Linsitinib; first compound 2.53 µM) | relative viability (AZ628 + Linsitinib; first compound 8 µM) | relative viability (QS11 + Tozasertib; first compound 0.08 µM) | relative viability (QS11 + Tozasertib; first compound 0.253 µM) | relative viability (QS11 + Tozasertib; first compound 0.8 µM) | relative viability (QS11 + Tozasertib; first compound 2.53 µM) | relative viability (QS11 + Tozasertib; first compound 8 µM) | relative viability (AZ628 + Phenformin; first compound 0.08 µM) | relative viability (AZ628 + Phenformin; first compound 0.253 µM) | relative viability (AZ628 + Phenformin; first compound 0.8 µM) | relative viability (AZ628 + Phenformin; first compound 2.53 µM) | relative viability (AZ628 + Phenformin; first compound 8 µM) | relative viability (QS11 + Olaparib; first compound 0.253 µM) | relative viability (QS11 + Olaparib; first compound 0.8 µM) | relative viability (QS11 + Olaparib; first compound 2.53 µM) | relative viability (QS11 + Olaparib; first compound 8 µM) | relative viability (QS11 + Olaparib; first compound 0.08 µM)
PC-3 [JPC-3] | 0.893 | 0.971 | 1.01 | 1.04 | 0.952 | 0.881 | 0.939 | 0.857 | 0.972 | 0.764 | 0.441 | 0.477 | 0.485 | 0.464 | 0.383 | 1.17 | 1.15 | 1.24 | 1.22 | –
NCI-H520 | 1.08 | 1.03 | 0.872 | 1.01 | 0.62 | 0.465 | 0.454 | 0.503 | 0.418 | 0.407 | 0.583 | 0.452 | 0.64 | 0.476 | 0.398 | 0.304 | 0.394 | 0.313 | 0.301 | 0.347
HCC-827 | 0.979 | 1.01 | 1.01 | 0.973 | 0.918 | 0.389 | 0.416 | 0.315 | 0.433 | 0.457 | 0.445 | 0.421 | 0.434 | 0.374 | 0.335 | 0.712 | 0.656 | 0.775 | 0.606 | 0.587
NCI-H1666 | 0.809 | 0.57 | 0.551 | 0.753 | 0.553 | 0.61 | 0.532 | 0.515 | 0.521 | 0.383 | 0.584 | 0.582 | 0.543 | 0.518 | 0.514 | 0.75 | 0.697 | 0.693 | 0.516 | 0.78
NCI-H322M | 1.05 | 0.939 | 1.01 | 0.854 | 0.662 | 0.479 | 0.479 | 0.45 | 0.545 | 0.64 | 0.783 | 0.737 | 0.725 | 0.769 | 0.663 | 0.947 | 0.802 | 0.846 | 1.06 | 0.715
